Where a name gives a salt, the structure may show the parent alone.
C[C@]12CC[C@H](OP(=O)(O)OC3=C(O)C(C(O)CO)OC3=O)CC1=CCC1C2CC[C@@]2(C)C1CC[C@@H]2OP(=O)(O)OC1=C(O)C(C(O)CO)OC1=O (stereo partly drawn) [Diascorbyl diphosphate of androst-5ene-3β,17β-diol, tetrasodium salt]
Solubility in ethanol (ethanol): Slightly soluble
Solubility in water (water, 50 mg sample, 50 microliter portions every 10 minutes, ultrasonic bath): 10.6 %, w/w

From patent US20030232797A1, “Novel derivatives of androstane and androstene with ascorbic acid and use thereof in treating or preventing various conditions, diseases, and disorders” (priority 2002, published 2003)
